Where two headings read alike, the source gives them in different places.
Key:
[1] = target: T1, hCB1 (Homo sapiens, UniProt P21554); experiment: Agonism of CB1 receptors expressed in CHO cells, forskolin cAMP assay (Protocol IX.2); type: cell-based; parameters: expressed in transfected cells; host or cells: CHO (h-CB1/CHO, G418-selected); settings: for activation at 10 µM: CHO
Protocol: (§1) IX. Assay for Determining Agonist and Antagonist Activity to CB1 and CB2 Receptors
2. Agonism of CB1/CB2 Receptors Expressed in CHO Cells
h-CB1/CHO or h-CB2/CHO cells were grown in HAM's F12 DMEM medium (Sigma) with 10% FBS (Hyclone), 1% penicillin-streptomycin solution and 400 μg/ml of G418 (Sigma). 5000 cells were seeded per well in a 96 well plate and incubated for 24 hours at 37° C. in 5% CO2. On the day of assay, cells were washed with warm Krebs Buffer containing 0.1% fatty acid free (FAF) BSA (Sigma) and re-suspended in the same buffer containing 1 mM IBMX. […] At the end of incubation, cells were lysed using lysis reagent from the cAMP estimation kit and cAMP was quantitated by chemiluminescence method described in the manufacturer's instructions (DiscoveRX). EC50 values were calculated from dose response curves by nonlinear regression analysis using PRISM software.

[2] = target: T1, hCB1; experiment: Antagonism of CB1 receptors expressed in CHO cells, cAMP assay against CP 55,940 (Protocol IX.1); type: cell-based; parameters: expressed in transfected cells; host or cells: CHO (h-CB1/CHO, G418-selected); settings: for inhibition at 10 µM: read-out: hCB1 Antagonism
[3] = target: T2, hCB2 (Homo sapiens, UniProt P34972); experiment: Agonism of CB2 receptors expressed in CHO cells, forskolin cAMP assay (Protocol IX.2); type: cell-based; parameters: expressed in transfected cells; host or cells: CHO (h-CB2/CHO, G418-selected); settings: cAMP
T2 sequence (P34972 whole entry): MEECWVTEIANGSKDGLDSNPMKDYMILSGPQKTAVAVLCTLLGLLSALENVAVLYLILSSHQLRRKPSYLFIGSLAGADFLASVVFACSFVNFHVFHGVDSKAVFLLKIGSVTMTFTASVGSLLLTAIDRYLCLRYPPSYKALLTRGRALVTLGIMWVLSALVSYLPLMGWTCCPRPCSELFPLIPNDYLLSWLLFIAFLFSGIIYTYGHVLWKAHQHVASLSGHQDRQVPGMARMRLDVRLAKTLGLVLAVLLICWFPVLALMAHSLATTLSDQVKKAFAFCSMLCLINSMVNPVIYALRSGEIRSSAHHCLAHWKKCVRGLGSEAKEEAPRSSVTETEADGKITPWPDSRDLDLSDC
In short: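 CHO cells expressing h-CB2 were treated with compound in Krebs buffer with 0.1% FAF BSA and 1 mM IBMX, plus 10 uM forskolin, for 30 minutes at room temperature. cAMP in lysates was measured by chemiluminescence. EC50 was derived by nonlinear regression of dose–response curves, with CP 55,940 at 10 μM as reference for CB2.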

[4] = target: T2, hCB2; experiment: Antagonism of CB2 receptors expressed in CHO cells, cAMP assay against CP 55,940 (Protocol IX.1); type: cell-based; parameters: expressed in transfected cells; host or cells: CHO (h-CB2/CHO, G418-selected); settings: h-CB2/CHO cells, vs 10 nM CP 55,940; for inhibition at 10 µM: CHO
Protocol: as §1
1. Antagonism of CB1/CB2 Receptors Expressed in CHO Cells.
h-CB1/CHO or h-CB2/CHO cells were grown in HAM's F12 DMEM medium (Sigma) with 10% FBS (Hyclone), 1% penicillin-streptomycin solution and 400 μg/ml of G418 (Sigma). 5000 cells were seeded per well in a 96 well plate and incubated for 24 hours at 37° C. in 5% CO2. On the day of assay, cells were washed with warm Krebs buffer containing 0.1% fatty acid free (FAF) BSA (Sigma) and re-suspended in the same buffer containing 1 mM IBMX. Test antagonist or reference compound (AM 251 (1-(2,4-dichlorophenyl)-5-(4-iodophenyl)-4-methyl-N-(1-piperidyl)pyrazole-3-carboxamide) for CB1 and SR144528 for CB2) diluted in FAFBSA+IBMX+Krebs buffer was added to the cells and incubated for 10 minutes at room temperature. CP 55,940 (30 nM final concentration for CB1 testing and 10 nM of the same for CB2 testing) was added to cells followed by forskolin (10 μM final concentration) and incubated for 30 minutes at room temperature. At the end of incubation, cells were lysed using lysis reagent from the cAMP estimation kit and cAMP was quantitated by the chemiluminescence method described in the manufacturer's instructions (DiscoveRX). EC50 values were calculated from dose response curves by nonlinear regression analysis using PRISM software.

[5] = target: T2, hCB2; experiment: In vitro binding assay using hCB2-CHO membranes, [3H]-CP-55,940 displacement (Protocol IV); parameters: expressed in transfected cells; host or cells: CHO (hCB2-CHO, generated in-house); settings: hCB2-CHO membranes, [3H]-CP-55,940 displacement; for inhibition at 0.3 µM: 1 h, read-out: % Displacement Protocol IV
In short: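 Displacement of [3H]-CP-55,940 (0.75 nM) from membranes of CHO cells expressing human CB2 (25-50 μg) was measured in Tris-BSA buffer pH 7.4 with 5 mM MgCl2, 1 mM EDTA, 0.1% BSA, 1 h at 30 °C. Test compounds were at 300 nM final; nonspecific binding defined with 0.5 μM CP-55,940. Values are % displacement of specific binding.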

[6] = target: T3, CB1 (Rattus norvegicus, UniProt P20272); experiment: Rat CB1 receptor binding using brain membrane, [3H]SR141716A displacement (Protocol I); parameters: CB1 receptor present in a rat brain membrane preparation; from tissue; host or cells: rat brain membrane; inhibition: dose or concentration left out as unconfirmed; settings: 1 h
T3 sequence (P20272 whole entry): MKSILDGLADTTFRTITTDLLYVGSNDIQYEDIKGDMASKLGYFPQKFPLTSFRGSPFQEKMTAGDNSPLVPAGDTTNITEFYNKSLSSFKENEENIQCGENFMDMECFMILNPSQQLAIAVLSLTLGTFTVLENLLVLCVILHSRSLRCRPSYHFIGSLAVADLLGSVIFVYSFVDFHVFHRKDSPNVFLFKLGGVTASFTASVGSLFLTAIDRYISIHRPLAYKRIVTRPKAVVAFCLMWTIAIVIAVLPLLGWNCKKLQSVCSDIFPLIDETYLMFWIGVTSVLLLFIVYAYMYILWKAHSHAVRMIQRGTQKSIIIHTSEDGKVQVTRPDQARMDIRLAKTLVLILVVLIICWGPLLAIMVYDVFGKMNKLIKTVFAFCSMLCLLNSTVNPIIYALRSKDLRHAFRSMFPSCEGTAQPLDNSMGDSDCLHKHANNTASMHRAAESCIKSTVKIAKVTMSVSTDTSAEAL

[7] = tested on: CB2 receptor; experiment: Rat CB2 receptor binding using spleen membrane, [3H]CP55,940 displacement (Protocol III)
Protocol: III. In Vitro Protocol for Rat CB2 Receptor Binding Using Spleen Membrane
In this assay, [^3H]CP55,940 was used to bind the CB2 receptor present in a rat spleen membrane preparation which can be displaced by unlabeled ligands having affinity to the CB2 receptor.
The assay was performed according to the modified method of Rinaldi-Carmona et al., 1998 (JPET 284: 644-650). The total reaction mixture ([…]) contained Tris-BSA buffer (50 mM Tris, pH 7.4 with 1.5% BSA) or unlabeled SR144528 (N-[(1S)-endo-1,3,3-trimethyl bicyclo[2.2.1]heptan-2-yl]-5-(4-chloro-3-methylphenyl)-1-(4-methyl-benzyl)-pyrazole-3-carboxamide]) ([…]) or test samples (300 nM), [^3H]CP55,940 (1 nM) and […] of rat […] membrane. The non-specific binding was defined by […] of SR144528. The assay mixture was incubated at 37° C. for 1 hour. The reaction was then stopped by rapid filtration under vacuum using a Whatman GF/B-96 micro filter plate. A scintillation cocktail was added and radioactive counts were measured using a Topcount beta scintillation counter.
The standard and test sample dilutions were made in an assay buffer containing either ethanol or DMSO at a final concentration of 1%.
The percent (%) displacement by a test ligand was calculated by comparing the specific bound values.

[8] = target: T3, CB1; experiment: GTPγS binding assay, CB1 functional assay in rat cerebellar membrane (Protocol VIII); type: biochemical; parameters: 10 μg rat cerebellum membrane; from tissue; host or cells: rat cerebellum membrane, prepared in-house; settings: for activation at 0.3 µM: 1 h, GTPγS binding over basal, rat cerebellar membrane, tested at 300 nM, read-out: Per Se % Stimulation; for inhibition at 0.3 µM: GTPγS binding, tested at 300 nM in presence of 1 μM WIN 55,212-2, read-out: % Inhibition of WIN-55212-2 induced stimulation
In short: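 Rat cerebellar membranes (10 μg) incubated 1 h at 30 °C with 0.2 nM [35S]GTPγS, 50 μM GDP, and compound at 1 μM or 300 nM, alone or with 1 μM WIN 55,212-2, in Tris/MgCl2/EGTA/NaCl pH 7.4. Filter-bound radioactivity counted; percent stimulation calculated against basal specific binding (nonspecific defined by 10 μM GTPγS).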

[9] = tested on: neuropathic hyperalgesia; experiment: Neuropathic hyperalgesia model, partial sciatic nerve ligation (Seltzer's model, Protocol V); type: in vivo; settings: rat, 1 mg/kg I.P., paw pressure, 0.5 and 1 hour postdose
Protocol: V. Neuropathic Hyperalgesia Model—Partial Sciatic Nerve Ligation (Seltzer's Model)
This protocol was performed with the compound of Example 294 at 0.01, 0.1, 0.3, and 1 mg/kg (I.P.), and gabapentin at 100 mg/kg (I.P.) to evaluate the ability of the compound of Example 294 in reducing neuropathic hyperalgesia. The Seltzer method is also generally described in Seltzer et al., Pain 1990, 43:205-18. • 1. Rats were anesthetised using ketamine/xylazine (40/5 mg/kg/ml, i.p.). After induction of anaesthesia, the left thigh was shaved and cleaned. • 2. The left sciatic nerve was exposed at mid thigh level through a small incision. • 3. The nerve was cleared from adhering muscle tissue. • 4. One half of the nerve thickness was tightly ligated just after the bifurcation of common sciatic nerve using 7.0 silk sutures. • 5. The wound was closed with muscle and skin sutures and povidone was applied. • 6. […] Paw withdrawal thresholds were recorded for both the ipsilateral and the contralateral hind paws before (predose) and 0.5 and 1 hour after drug or vehicle administration (postdose). • 9. […]
The threshold withdrawal latency (naïve, predose & postdose) values are represented as mean±SEM. […] The percent reversal of neuropathic mechanical hyperalgesia was calculated from withdrawal threshold latency values according to the following formula: […]

[10] = target: T1, hCB1; experiment: In vitro binding assay using hCB1-CHO membranes, [3H]-CP-55,940 displacement (Protocol II); parameters: expressed in transfected cells; host or cells: CHO (hCB1-CHO, generated in-house)
In short: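 Incubated 1 h at 37° C, stopped by rapid vacuum filtration on PEI-precoated GF/B filters, bound radioactivity counted by liquid scintillation.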

[11] = at 10 uM, h-CB1/CHO cells, cAMP
[12] = at 10 uM, h-CB1/CHO cells, cAMP, vs 30 nM CP 55,940
[13] = hCB2 Agonism IC50, h-CB2/CHO cells

T1 sequence (P21554 whole entry): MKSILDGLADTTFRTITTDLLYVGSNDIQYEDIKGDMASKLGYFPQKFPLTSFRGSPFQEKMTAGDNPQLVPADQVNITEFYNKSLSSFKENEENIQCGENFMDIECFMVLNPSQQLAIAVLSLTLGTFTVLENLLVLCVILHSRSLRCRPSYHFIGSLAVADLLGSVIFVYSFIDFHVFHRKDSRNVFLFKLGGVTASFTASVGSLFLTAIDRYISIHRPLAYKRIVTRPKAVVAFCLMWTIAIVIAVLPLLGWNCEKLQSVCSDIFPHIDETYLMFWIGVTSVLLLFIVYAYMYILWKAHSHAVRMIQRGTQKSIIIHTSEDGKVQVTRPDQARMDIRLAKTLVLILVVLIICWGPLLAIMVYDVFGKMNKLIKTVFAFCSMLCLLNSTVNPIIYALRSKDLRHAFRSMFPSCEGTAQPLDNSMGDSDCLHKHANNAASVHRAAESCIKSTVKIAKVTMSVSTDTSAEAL

Structure (SMILES): O=C(NCc1ccccc1)c1n[nH]c2c1C1CC3CC(CC2C3)C1 [Example 186, N(7)-Benzyl-5,6-diazatetracyclo[7.3.1.1^3,11.0^4,8]tetradeca-4(8)-6-diene-7-carboxamide]
- activation at 10 µM [1, 11]: 29.4%
- inhibition at 10 µM [2, 12]: 0%
- IC50 [3, 13]: 8.51 nM
- inhibition at 10 µM [4]: 21%
- inhibition at 0.3 µM [5]: 59.1%
- inhibition ([6]; rat brain membrane, [3H]SR141716A displacement, read-out: % Displacement Protocol I): 17.2%

Structure (SMILES): CC(C)(NC(=O)c1nn(-c2ccc(Cl)cc2)c2c1C1CC3CC(C1)CC2C3)c1ccccc1 [Example 119]
- % Displacement Protocol III [7]: 85.2%
- melting point: 181 °C
- IC50 [1]: 38.3 nM
- inhibition at 10 µM ([2]; CHO): 18.4%
- activation at 0.3 µM [8]: 46%
- inhibition at 0.3 µM [8]: 38.9%

Structure (SMILES): CC(C)(NC(=O)c1nn(-c2ccc(F)cc2F)c2c1C1CCC2C1)c1ccccc1 (stereo not shown) [Example 294, N(3)-(1-Methyl-1-phenylethyl)-1-(2,4-difluorophenyl)-4,5,6,7-tetrahydro-1H-4,7-methano-indazole-3-carboxamide]
- reversal of neuropathic hyperalgesia [9]: significantly reversed neuropathic hyperalgesia
- melting point: 105 °C
- activation at 0.3 µM [8]: 103%
- inhibition at 0.3 µM [8]: 9.8%
- inhibition ([6]; read-out: % Displacement Protocol I, rat brain membrane, [3H]SR141716A displacement): 111%

Structure (SMILES): C[C@H](NC(=O)c1nn(-c2ccc(Cl)cc2)c2c1C1CC3CC(C1)CC2C3)c1ccccc1 [Example 117]
- % Displacement Protocol III [7]: 59.8%
- melting point: 85 to 86 °C
- IC50 [1]: 18.9 nM
- activation at 0.3 µM [8]: 4.4%
- inhibition at 0.3 µM [8]: 55.7%

Structure (SMILES): O=C(NNc1ccccc1F)c1nn(-c2ccc(F)cc2F)c2c1C1CCC2C1 (stereo not shown) [Example 288, N(3)-[(2-Fluorophenyl)amino]-1-(2,4-difluorophenyl)-4,5,6,7-tetrahydro-1H-4,7-methano-indazole-3-carboxamide]
- melting point: 172 to 175 °C
- activation at 10 µM [1, 11]: 0%
- inhibition at 10 µM [2, 12]: 55.3%
- IC50 [3, 13]: 4.76 nM
- inhibition at 10 µM [4]: 17.1%
- inhibition at 0.3 µM [5]: 60.8%

Structure (SMILES): O=C(NCC1CCOCC1)c1nn(-c2ccc(F)cc2F)c2c1C1CCC2C1 (stereo not shown) [Example 316, N(3)-(Tetrahydro-2H-4-pyranmethyl)-1-(2,4-difluorophenyl)-4,5,6,7-tetrahydro-1H-4,7-methano-indazole-3-carboxamide]
- hCB1 Agonism [1, 11]: 18.53% at
- hCB1 Antagonism [2, 12]: 2% at 10 uM
- IC50 ([3]; h-CB2/CHO cells, read-out: hCB2 Agonism IC50): 1.2 to 4.27 nM
- hCB2 Antagonism ([4]; at 10 uM): 37.63% at
- % Displacement Protocol II [10]: 13.83%
- % Displacement Protocol IV [5]: 66.65%

From patent publication US7923465B2, “Cannabinoid receptor ligands, pharmaceutical compositions containing them, and process for their preparation” (priority 2005, dated 2011)
